According to publication PMC6300282, “Sulphamethazine derivatives as immunomodulating agents: New therapeutic strategies for inflammatory diseases” (PLoS ONE, 2018):

Tests used:
[1] = tested on: nitric oxide (NO) production from LPS activated J774.2 mouse macrophages; assay: Nitric oxide production (Griess), LPS activated macrophages; type: cell-based; conditions: J774.2 cells, 30 μg/mL LPS, three doses 1, 10, 100 μg/mL, mean ± SD of three, read-out: NO Inhibition (IC50)
Description: The mouse macrophage cell line J774.2 (European Collection of Cell Cultures, UK) was cultured in 75 cc flasks IWAKI (Asahi Techno Glass, Japan) in DMEM Sigma-Aldrich (Steinheim, Germany) supplemented with 10% fetal bovine serum GIBCO (New York, USA)1% streptomycin/penicillin. Flasks were kept at 37 °C in atmosphere of humidified air containing 5% CO2, cells were seeded in 96-well plate (10^6 cells/mL) and were induced by 30 μg/mL e. coli lipopolysaccharide (LPS) (DIFCO Laboratories michigon, USA). The test compounds were added at concentrations of (1, 10 and 100 μg/mL) and plate was incubated at 37 °C in 5% CO2. Nitrite accumulation in culture supernatant was measured using the Griess reagents as described previously.

[2] = tested on: Bacillus subtilis (ATCC 6633); assay: Microplate Alamar Blue Assay, Bacillus subtilis; type: cell-based; conditions: ATCC6633, 200 μg/mL, NI = No inhibition, read-out: Percentage (%) Inhibition, Bacillus subtilis
Description: (§1) The anti-bacterial activity of synthesized compound were evaluated by the Microplate Alamar Blue Assay. Staphylococcus aureus (ATCC 25923), Pseudomonas aeruginosa(POA 286), Salmonella typhi (ATCC 14028), Bacillus subtilis ATCC 6633) and Escherichia coli (ATCC 12022) were used in this study as a standard bacterial strains and they were obtained from microbial bank of PCMD, International Center for Chemical and Biological Sciences, University of Karachi, Karachi-75270, Pakistan. The bacterial colonies grown in Trypton Soya Agar (TSA) (Oxoid Limited, UK) were inoculated in Mueller Hinton Broth (MHB) (Oxoid Limited, UK) and incubated overnight at 37 °C. Fully grown bacterial cultures were then diluted to adjust with 0.5 McFarland Turbidity Index (equivalent to 1.5 × 10^8 CFU/mL). Stock solutions (4 mg/mL) of different test compounds were prepared in DMSO and 10μL each of these stock solutions were placed in well of flat bottom, polystyrene, sterile 96-wells plate except the positive control wells (media + bacteria). This gives 200μg/mL concentrations of compounds in final 200 μL solution. Each compound was run in triplicates. Finally, bacterial suspension (5 x 10^6 CFU/mL) was added in each well. Plates were sealed by parafilm and incubated at 37 °C for 18–22 hrs. Next day, 20 μL of 0.02% resazurin sodium salt dye (Chem-Impex-Int’LInc) was added in each well and incubated in shaking incubator at 80 rpm, 37 °C for 2–3 hrs. The color change from blue to reddish pink indicates the growth of bacteria. For quantitative analysis, plates were read at 570 nm and 600 nm in Multiskan GOmicroplate spectrophotometer, (Thermo Scientific, USA). The % inhibition of bacterial growth was calculated using below mentioned formula.
(§2) For the calculation of the % difference in reduction between treated and control cells in cytotoxicity/proliferation assays: =(εOX)λ2Aλ1-(εOX)λ1Aλ2oftestagent/(εOX)λ2A°λ1-(εOX)λ1A°λ2ofpositivegrowthcontrol×100

[3] = tested on: Salmonella typhi (ATCC 14028); assay: Microplate Alamar Blue Assay, Salmonella typhi; type: cell-based; conditions: Salmonella enterica; 200 μg/mL; NI = No inhibition; read-out: Percentage (%) Inhibition, Slamonella typhi
Description: as §1, §2

[4] = tested on: Staphylococcus aureus (ATCC 25923); assay: Microplate Alamar Blue Assay, Staphylococcus aureus; type: cell-based; conditions: Staphylococcus aureus, ATCC25923; 200 μg/mL; NI = No inhibition; read-out: Percentage (%) Inhibition, Staphylococcus aureus
Description: as §1, §2

[5] = tested on: Escherichia coli (ATCC 12022); assay: Microplate Alamar Blue Assay, Escherichia coli; type: cell-based; conditions: ATCC12022, 200 μg/mL, NI = No inhibition, read-out: Percentage (%) Inhibition, Escherichia coli
Description: as §1, §2

[6] = tested on: Pseudomonas aeruginosa (POA 286); assay: Microplate Alamar Blue Assay, Pseudomonas aeruginosa; type: cell-based; conditions: Pseudomonas aeruginosa; 200 μg/mL; NI = No inhibition; read-out: Percentage (%) Inhibition, Pseudomonas aerugenosa
Description: as §1, §2

MTT cytotoxicity assay = type: cell-based, mouse; conditions: mouse; MTT, 48 hours; read-out: Cytotoxicity NIH-3T3 cell line (IC50)
Description: The cytotoxicity was recorded as concentration causing 50% growth inhibition (IC50).

[7] = tested on: TNF-α production from THP-1 human monocytic leukemia cell line; assay: TNF-α production (ELISA), LPS stimulated THP-1 cells; type: cell-based; conditions: PMA-differentiated THP-1 cells, 50 ng/mL LPS, 4 hours; three doses 1, 10, 100 μg/mL; mean ± SD of three
Text: RPMI-1640 (R8758, Sigma Aldrich, St. Louis, USA); L-glutamine (25030081, Gibco, California, USA); D-glucose (G8270, Sigma Aldrich, St. Louis, USA); 2-mercaptoethanol (190242, MP Biomedicals, lllkirch, France); sodium pyruvate (11360–070, Gibco, California, USA); FBS (A11-104, PAA Laboratories, Pasching, Austria); HEPES (H3375, Sigma Aldrich, St. Louis, USA); PMA (151864, MP Biomedicals, lllkirch, France); lipopolysaccharide B of E. coli 0111:B4 (LPS) (3922–25, DIFCO Laboratories, USA); 24-well tissue culture plates (CLS3524, Corning, Dublin, USA); Flat bottom 96-well tissue culture plates (CLS3300, Corning, New York, USA). BSA (151429, MP Biomedicals, lllkirch, France); PBS tablets (41620016–4, Bioworld, Dublin, Ireland); Tween 20 (822184, Merck, Damstadt, Germany); Human TNF-α DuoSet ELISA Kit (DY210, R&D Systems, Minneapolis, USA); Human IL-1β DuoSet ELISA Kit (DY201, R&D Systems, Minneapolis, USA); and Human IL-2 DuoSet ELISA Kit (DY202, R&D Systems, Minneapolis, USA); ELISA plate sealers (DY992, R&D Systems, Minneapolis, USA); Clear flat bottom 96-well microplates (DY990, R&D Systems, Minneapolis, USA). Human monocytic leukemia cells THP-1 were obtained from (European Collection of Cell Cultures, UK). The cells were maintained in RPMI-1640 containing 5.5 mmol/L glucose (BioM Laboratories, Chemical Division, Malaysia), 50 μmol/L mercaptoethanol (Merck Damstadt, Germany), 10% FBS (fetal bovine serum), 2 mmol/L; L-glutamine (PAA Laboratories, GmbH, Pasching, Austria). Cells were grown in 75 cc flasks, harvested and 2.5×10^5 cells/mL was then plated in 24-well tissue culture plates. 20 ng/mL of phorbol-12-myristate-13-acetate (PMA), (SERVA, Heidelberg, Germany) was added followed by incubation for 24 hours at 37 °C in 5% CO2to convert them into macrophage like cell. Cells were then stimulated with E. coli lipopolysacchride B, (DIFCO Laboratories, michigon, USA) at a final concentration of 50 ng/mL and treated with compounds at three different concentration (1, 10 and 100 μg/mL) and then incubated for 4 hours at 37 °C in 5% CO2. The supernatants collected were analyzed for the level of TNF -α using the human TNF-α Duo Set ELISA (R&D Systems, Minneapolis, USA), and according to manufacturer’s instructions.

[8] = tested on: zymosan activated whole blood phagocytes; assay: Oxidative burst assay (luminol-enhanced chemiluminescence), whole blood; type: cell-based; conditions: human whole blood, serum opsonized zymosan, three doses 1, 10, 100 μg/mL, mean ± SD of three, NA = Not active, read-out: Oxidative Burst Inhibition (IC50) WB
Description: (§3) Luminol-enhanced chemiluminescence assay was performed, as described by Helfandet al., 1982 [17], with some modifications. Briefly 25 μL of diluted whole blood in HBSS^++ (Hanks Balanced Salt Solution, containing calcium chloride and magnesium chloride) [Sigma, St. Louis, USA] was incubated with 25 μL of three different concentrations of compounds (1, 10, and 100 μg/mL), each in triplicate. Control wells received HBSS^++ and cells, but no compounds. Test was performed in white half area 96-well plates [Costar, NY, USA], which was incubated at 37 °C for 15 minutes in the thermostat chamber of luminometer [Labsystems, Helsinki, Finland]. After incubation, 25 μL of serum opsonized zymosan (SOZ) [Fluka, Buchs, Switzerland] and 25 μL of intracellular reactive oxygen species detecting probe, luminol [Research Organics, Cleveland, OH, USA] were added into each well, except blank wells (containing only HBSS^++). The level of the ROS was recorded in luminometer in term of relative light units (RLU).

[9] = tested on: isolated polymorphonuclear neutrophils (PMNs); assay: Oxidative burst assay (luminol-enhanced chemiluminescence), isolated PMNs; type: cell-based; conditions: Polymorphonuclear neutrophil, isolated human PMNs, zymosan, three doses 1, 10, 100 μg/mL, mean ± SD of three, read-out: Oxidative Burst Inhibition (IC50) PMNs
Text: Heparinized blood was obtained by vein puncture aseptically from healthy volunteers. The PMNs were isolated by ficoll-Hypaque density gradient method. The cells were isolated after centrifugation from the tube base. Cells were washed twice and suspended in Hank’s Balance salt solution (HBSS^--) (Ca^2+ and Mg^2+ free), RBCs were lysed using hypotonic solution. Cells were adjusted to their required concentration (1x10^6 cells/mL) using HBSS^++containing Ca^2+ and Mg^2+.
as §3

Compound | IC50 [1] [µg/mL] | inhibition at 200 µg/mL [2] [%] | melting point [°C] | inhibition at 200 µg/mL [3] [%] | inhibition at 200 µg/mL [4] [%] | inhibition at 200 µg/mL [5] [%] | inhibition at 200 µg/mL [6] [%] | IC50 (MTT cytotoxicity assay) [µM] | TNF-α Inhibition (IC50) [7] [µg/mL] | IC50 [8] [µg/mL] | IC50 [9] [µg/mL]
[H]/N=C(/NC)NCCC[C@H](N)C(=O)O [41 (L-NMMA), NG monomethyl L-arginine acetate, reference compound] | 24.2 ± 0.6 |  |  |  |  |  |  |  |  |  | 
Cc1cc(C)nc(NS(=O)(=O)c2ccc(NC(=O)c3ccc(Cl)cc3Cl)cc2)n1 [Compound 24, 2,4-dichloro-N-(4-(N-(4,6-dimethylpyrimidin-2-yl)sulfamoyl)phenyl)benzamide] |  | < 0 | 233 to 236 | 18.4 | 48.4 | 7.45 | < 0 | > 30 |  |  | 
CC(=O)CCCCn1c(=O)c2c(ncn2C)n(C)c1=O [42 (Pentoxifillin), Pentoxifillin, reference compound] |  |  |  |  |  |  |  |  | 94.8 ± 2.1 |  | 
Cc1cc(C)cc(C(=O)Nc2ccc(S(=O)(=O)Nc3nc(C)cc(C)n3)cc2)c1 [Compound 38, N-(4-(N-(4,6-dimethylpyrimidin-2-yl)sulfamoyl)phenyl)-3,5-dimethylbenzamide] |  | < 0 | 216 to 218 | < 0 | < 0 | < 0 | 19 | > 30 |  |  | 
Cc1ccc(C(=O)Nc2ccc(S(=O)(=O)Nc3nc(C)cc(C)n3)cc2)cc1 [Compound 34, N-(4-(N-(4,6-dimethylpyrimidin-2-yl)sulfamoyl)phenyl)-4-methylbenzamide] |  | < 0 |  | 0.65 | < 0 | < 0 | 15.4 | > 30 |  |  | 
CC(C)Cc1ccc(C(C)C(=O)O)cc1 (stereo not drawn) [40 (Ibuprofen), Ibuprofen, reference compound] |  |  |  |  |  |  |  |  |  | 11.2 ± 1.9 | 2.5 ± 0.6
Cc1cc(C)nc(NS(=O)(=O)c2ccc(NC(=O)c3ccc([N+](=O)[O-])cc3Cl)cc2)n1 [Compound 27, 2-chloro-N-(4-(N-(4,6-dimethylpyrimidin-2-yl)sulfamoyl)phenyl)-4-nitrobenzamide] |  | < 0 |  | 3.72 | 50.1 | < 0 | < 0 | > 30 |  |  | 
COc1cc(OC)cc(C(=O)Nc2ccc(S(=O)(=O)Nc3nc(C)cc(C)n3)cc2)c1 [Compound 33, N-(4-(N-(4,6-dimethylpyrimidin-2-yl)sulfamoyl)phenyl)-3,5-dimethoxybenzamide] |  | < 0 |  | < 0 | 31.3 | < 0 | < 0 | > 30 |  |  | 
Cc1cc(C)nc(NS(=O)(=O)c2ccc(NC(=O)c3ccc(C(F)(F)F)cc3)cc2)n1 [Compound 19, N-(4-(N-(4,6-dimethylpyrimidin-2-yl)sulfamoyl)phenyl)-4-(trifluoromethyl)benzamide] |  | < 0 |  | 0.99 | 49.4 | < 0 | 2.37 | > 30 |  |  | 
Cc1cccc(C(=O)Nc2ccc(S(=O)(=O)Nc3nc(C)cc(C)n3)cc2)c1 [Compound 36, N-(4-(N-(4,6-dimethylpyrimidin-2-yl)sulfamoyl)phenyl)-3-methylbenzamide] |  | < 0 |  | < 0 | < 0 | < 0 | 20.5 | > 30 |  |  | 
